From patent publication US20130121994A1, “TRIAZOLOPYRIDINE DERIVATIVES” (BAYER INTELLECTUAL PROPERTY GMBH, priority 2009, published 2013)

target: T1, human kinase Mps-1 (Homo sapiens, UniProt P33981); test: Mps-1 kinase assay (HTRF); format: biochemical
T1 construct: N-terminally GST-tagged human full length recombinant Mps-1 kinase; GST (N); purchased Invitrogen, Karslruhe, Germany PV4071
T1 sequence (P33981 1-857): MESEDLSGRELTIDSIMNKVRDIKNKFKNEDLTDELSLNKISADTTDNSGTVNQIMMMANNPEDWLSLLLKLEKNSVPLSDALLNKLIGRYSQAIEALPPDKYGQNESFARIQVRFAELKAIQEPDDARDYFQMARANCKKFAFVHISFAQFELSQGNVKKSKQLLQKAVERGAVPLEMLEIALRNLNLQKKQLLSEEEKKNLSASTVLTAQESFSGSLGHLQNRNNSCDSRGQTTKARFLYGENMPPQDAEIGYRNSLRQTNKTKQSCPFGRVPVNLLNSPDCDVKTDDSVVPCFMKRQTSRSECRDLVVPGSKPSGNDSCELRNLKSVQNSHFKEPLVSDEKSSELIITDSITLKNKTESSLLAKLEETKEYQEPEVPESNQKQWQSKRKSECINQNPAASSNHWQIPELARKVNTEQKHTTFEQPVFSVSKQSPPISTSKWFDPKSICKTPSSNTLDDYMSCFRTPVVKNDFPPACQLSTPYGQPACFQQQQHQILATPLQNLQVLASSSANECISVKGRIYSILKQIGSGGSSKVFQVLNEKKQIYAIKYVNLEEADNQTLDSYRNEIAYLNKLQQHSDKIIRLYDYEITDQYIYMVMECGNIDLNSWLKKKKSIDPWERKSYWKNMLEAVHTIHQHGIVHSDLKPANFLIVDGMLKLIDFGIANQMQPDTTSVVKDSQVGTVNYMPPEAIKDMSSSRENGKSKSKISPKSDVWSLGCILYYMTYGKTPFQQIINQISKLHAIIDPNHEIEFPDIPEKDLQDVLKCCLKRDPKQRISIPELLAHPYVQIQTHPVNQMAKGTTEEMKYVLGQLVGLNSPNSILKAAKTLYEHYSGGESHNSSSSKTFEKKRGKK

| Structure (SMILES) | IC50 |
| --- | --- |
| CCOc1cc(C(=O)NC(C)(C)CO)ccc1Nc1nc2ccc(-c3ccc(C(=O)NCC(C)C)cc3)cn2n1 [Example 11.035, 3-ethoxy-N-(1-hydroxy-2-methylpropan-2-yl)-4-[(6-{4-[(2-methylpropyl)carbamoyl]phenyl}[1,2,4]triazolo [1,5-a]pyridin-2-yl)amino]benzamide] | 1.92 nM |
| CCOc1cc(C(=O)NCC(C)(C)O)ccc1Nc1nc2ccc(-c3ccc(C(=O)NCC(C)C)cc3)cn2n1 [Example 11.036, 3-ethoxy-N-(2-hydroxy-2-methylpropyl)-4-[(6-{4-[(2-methylpropyl)carbamoyl]phenyl}[1,2,4]triazolo [1,5-a]pyridin-2-yl)amino]benzamide] | 2.58 nM |
| CCN(CC)C(=O)c1ccc(Nc2nc3ccc(-c4ccc(C(=O)NCC(F)(F)F)cc4)cn3n2)cc1 [Example 11.038, N,N-diethyl-4-[(6-{4-[(2,2,2-trifluoroethyl)carbamoyl]phenyl}[1,2,4]triazolo [1,5-a]pyridin-2-yl)amino]benzamide] | 10.5 nM |
| C[C@@H](NC(=O)c1cccc(-c2ccc3nc(Nc4ccccc4C#N)nn3c2)c1)C(C)(C)C [Example 11.039, 3-{2-[(2-cyanophenyl)amino][1,2,4]triazolo[1,5-a]pyridin-6-yl}-N-[(2R)-3,3-dimethylbutan-2-yl]benzamide] | 1.71 nM |
| CC(F)(F)CNC(=O)c1cccc(-c2ccc3nc(Nc4ccccc4C#N)nn3c2)c1 [Example 11.041, 3-{2-[(2-cyanophenyl)amino][1,2,4]triazolo[1,5-a]pyridin-6-yl}-N-(2,2-difluoropropyl)benzamide] | 2.54 nM |

Now those with a lower IC50, led by results:

| IC50 | Structure (SMILES) |
| --- | --- |
| ≤ 1 nM | CCOc1cc(C(=O)N(C)CCO)ccc1Nc1nc2ccc(-c3ccc(C(=O)NCC(F)(F)F)cc3)cn2n1 [Example 11.033, 3-ethoxy-N-(2-hydroxyethyl)-N-methyl-4-[(6-{4-[(2,2,2-trifluoroethyl)carbamoyl]phenyl}[1,2,4]triazolo [1,5-a]pyridin-2-yl)amino]benzamide] |
| 1.38 nM | CCOc1cc(C(=O)NCC(C)(C)O)ccc1Nc1nc2ccc(-c3ccc(C(=O)NCCC(F)(F)F)cc3)cn2n1 [Example 11.034, 3-ethoxy-N-(2-hydroxy-2-methylpropyl)-4-[(6-{4-[(3,3,3-trifluoropropyl)carbamoyl]phenyl}[1,2,4]tria-zolo[1,5-a]pyridin-2-yl)amino]benzamide] |
| ≤ 1 nM | O=C(NCCO)c1ccc(Nc2nc3ccc(-c4ccc(C(=O)NCC(F)(F)F)cc4)cn3n2)c(OCC(F)(F)F)c1 [Example 11.037, N-(2-hydroxyethyl)-3-(2,2,2-trifluoroethoxy)-4-[(6-{4-[(2,2,2-trifluoroethyl)carbamoyl]phenyl}[1,2,4]triazolo [1,5-a]pyridin-2-yl)amino]benzamide] |
| 1.27 nM | C[C@@H](NC(=O)c1cccc(-c2ccc3nc(Nc4ccccc4C#N)nn3c2)c1)C(F)(F)F [Example 11.040, 3-{2-[(2-cyanophenyl)amino][1,2,4]triazolo[1,5-a]pyridin-6-yl}-N-[(2R)-1,1,1-trifluoropropan-2-yl]benzamide] |
| ≤ 1 nM | CC(C)(C)CNC(=O)c1cccc(-c2ccc3nc(Nc4ccccc4C#N)nn3c2)c1 [Example 11.042, 3-{2-[(2-cyanophenyl)amino][1,2,4]triazolo[1,5-a]pyridin-6-yl}-N-(2,2-dimethylpropyl)benzamide] |
| ≤ 1 nM | N#Cc1ccccc1Nc1nc2ccc(-c3cccc(C(=O)NCC(F)(F)C(F)(F)F)c3)cn2n1 [Example 11.043, 3-{2-[(2-cyanophenyl)amino][1,2,4]triazolo[1,5-a]pyridin-6-yl}-N-(2,2,3,3,3-pentafluoropropyl)benzamide] |
| 1.47 nM | N#Cc1ccccc1Nc1nc2ccc(-c3cccc(C(=O)NCC(F)(F)F)c3)cn2n1 [Example 11.044, 3-{2-[(2-cyanophenyl)amino][1,2,4]triazolo[1,5-a]pyridin-6-yl}-N-(2,2,2-trifluoroethyl)benzamide] |
| 1.18 nM | CC(C)(C)NC(=O)c1cccc(-c2ccc3nc(Nc4ccccc4C#N)nn3c2)c1 [Example 11.045, N-tert-butyl-3-{2-[(2-cyanophenyl)amino][1,2,4]triazolo[1,5-a]pyridin-6-yl}benzamide] |
